Results on nine compounds are retold here after US20260376283A1, “A METHOD IMPLEMENTING MORPHOLOGICAL CHANGES OF EXTRACELLULAR ORGANELLE VESICLES SO AS TO EXAMINE THE TRANSPORTING ACTIVITY OF MEMBRANE TRANSPORT PROTEINS AND OTHER RELATED METHODS” (PARIS SCIENCES ET LETTRES, priority 2023, published 2026).

In assay [1] the test system is giant organelles from the ER. In words: Giant organelle formation after pre-treatment of cells (ER). Format: cell-based. To be noted: pre-treatment between 1 and 90 min before swelling. The text has this: (§1) According to a particular embodiment of the first process, prior to the generation of giant extracellular organelle vesicles, cells may be treated with molecules to prevent protein degradation, modulate biochemical reactions on organelles, etc., so that giant extracellular organelle vesicles can bear specific biochemical properties. The metabolic conditions and the architecture of cells and its organelles can thus be further modified before step v), by chemicals and/or by modifying the expression level of proteins impacting the architecture of cells and/or their organelles and/or the metabolic conditions. […] These manipulations enable controlling the size of the recovered giant extracellular organelle vesicles and their contact: tuning the surface-to-volume ratio, prior to the osmotic swelling, impacting the future recovered giant organelle size, with adapted osmotic swelling. […]

In assay [2] the test system is ion channel TMEM175 localized on lysosomes or endolysosomes vesicles. The settings on record: cited from earlier work.
The subject of assay [3] is SERCA pump. In words: Screening of candidate compounds modulating SERCA activity by ER vesicle re-swelling (Example 4). Format: biochemical. To be noted: role: inhibitor; for re-swelling process in presence of inhibitor: thapsigargin 10 μM in DMSO, 10 min, CaCl2 60 mOsm/L, ATP 1 mM / 100 μM, compared to vesicle not incubated. On the procedure: Once the ER extracellular organelle vesicles are extracted, thapsigargin (10 μM) in DMSO, is added to the medium. […] After 10 minutes of incubation with thapsigargin, and once the acquisition is started, the extracellular organelle vesicle, held by the micropipette is passed through an aqueous solution containing CaCl2 (60 mOsm/L) and ATP (1 mM).
FIG. 6 A) represents an ER extracellular organelle vesicle maintained thanks to a micropipette into a HKM diluted buffer (20 mOsm/L). This extracellular organelle vesicle has been isolated thanks to an ER resident protein, over-expressed by COS7 cells, before organelle vesicles extraction. This extracellular organelle vesicle was incubated with thapsigargin at 10 μM during 10 min.
At t=0s, CaCl2 (60 mOsm/L) and ATP (100 μM) were added. Dotted line circles all correspond to the size of the extracellular organelle vesicle before the beginning of the process.

Assay [4] relates to SERCA pump. The settings on record: role: inhibitor; cited from earlier work.
Assay [5] relates to ion pump SERCA localized on Endoplasmic Reticulum vesicles. Briefly: Ca2+ pump transporting activity by morphological change (deflation/re-swelling) of ER extracellular organelle vesicles (Example 1). Format: biochemical. To be noted: role: substrate. As for the experimental part: An initial HKM buffer was prepared with 50 mM Hepes (known as 2-[4-(2-hydroxyethyl)piperazin-1-yl]ethanesulfonic acid), 120 mM potassium acetate, and 1 mM MgCl2 (in Milli-Q water) at pH 7.4. Said initial HKM buffer has an osmolarity of 280±15 mOsm/L.
Then, a membrane tension is applied on cells so as to produce extracellular organelle vesicles without lysing them. At that step, the extracellular organelle vesicles are released (or produced) thanks to the lysis and the removal of the plasma membrane. The membrane tension is carried out by micro-manipulation of the cells under confocal microscope thanks to a micropipette aspiration technique. Micropipette radius is around 1 μm. Thanks to a slight aspiration, a bilayer tongue of the plasma membrane was sucked into the micropipette. The aspiration is then increased at an approximate rate of 10 mbar/min, causing a proportional increase in the bilayer surface tension. At a certain applied tension (e.g. surface tension<0.75 mN/m), the plasma membrane ruptured thanks to a pore opening in the plasma membrane and the extracellular organelle vesicles are released (or extracted).
After extraction, one or more extracellular organelle vesicles are isolated using a micropipette. The micropipettes are used to hold a vesicle during the following methods of the present invention. Before the addition of molecules (ions, sugars or drug molecules), an acquisition is launched to observe the initial size of the vesicle.
Once the acquisition is started, the extracellular organelle vesicle, held by the micropipette is passed through an aqueous solution containing CaCl2 (60 mOsm/L) and ATP (100 μM). Contacting calcium ions with said extracellular organelle vesicle increases the osmolarity of the extravesicular aqueous medium. […] This innovative process allows to examine the transporting activity of the ion pump SERCA localized on Endoplasmic Reticulum vesicles.
FIG. 1 A) represents an extracellular organelle vesicle of endoplasmic reticulum (ER) which is maintained thanks to a micropipette into a HKM diluted buffer (20 mOsm/L) as an extravesicular aqueous medium. This extracellular organelle vesicle has been isolated thanks to an ER resident protein (KDEL), over-expressed by COS7 cells, before organelle vesicles extraction.
At t=0s, CaCl2 (60 mOsm/L) and ATP (100 μM) were added. At t=20s, the ER extracellular organelle vesicle is deflated: it reached its minimum volume (Vi1) and its associated maximum fluorescence signal (Fl1).
Once the acquisition is started, the ER extracellular organelle vesicle, held by the micropipette is passed through an aqueous solution containing sucrose (60 mOsm). […] Sucrose can thus be used as a control or reference in the method of the present invention.

For assay [6], the system named is giant extracellular organelles vesicles from endosome, lysosome, autolysosome and multivesicular body. In words: Giant organelle formation after pre-treatment of cells (endosome, lysosome, autolysosome, multivesicular body). Format: cell-based. The settings on record: added between 12 to 24 hours before swelling.
From the text: as §1

Assay [7] deals with ion channel TMEM175 localized on lysosomes or endolysosomes vesicles. Briefly: K+ ion channel TMEM175 transporting activity by endolysosome vesicle morphological change (Example 8). Format: biochemical. To be noted: role: substrate, KCl 100 mM inside, 1 mM outside with 200 mM sucrose. As for the experimental part: Before starting acquisition, extracellular endolysosome vesicles are charged with K^+ ions thanks to a bath sonicator and an extracellular solution (210 mOsm/L) containing 100 mM of KCl and 10 mM of Hepes, pH 7.2. Then, extracellular endolysosome vesicles are seeded on a glass plate for observation. Before starting acquisition, extravesicular aqueous solution is removed to be changed when starting acquisition.
Once the acquisition is started, the extracellular organelle vesicle, held by the micropipette is passed through an extra-vesicular aqueous solution (200 mOsm/L) containing 1 mM of KCl and 200 mM of sucrose. Contacting very small amount of potassium ions with said extracellular organelle vesicle generates a concentration gradient of K^+ between the inside and the outside of the vesicles. […] This innovative process allows to examine the transporting activity of the ion channel TMEM175 localized on lysosomes or endolysosomes vesicles in absence and/or in presence of an antagonist (4-AP) and/or agonist (DCPIB).

The subject of assay [8] is giant extracellular organelles vesicles coming from autophagosomes. In words: Giant organelle formation after pre-treatment of cells (autophagosomes). Format: cell-based. To be noted: added before swelling and extraction.
From the text: as §1

Entries after “also recorded” stand apart in the source; their conditions may differ. Read-outs that look alike come from different tables or passages of the source.

For `C/C1=C/C(=O)O[C@@H]2C[C@@H](CC[C@H](C)/C=C\C=C\CC1)O[C@@](O)([C@@H]1CSC(=O)N1)C2` [Latrunculin A], the “effect on giant organelle formation from the ER” value in assay [1] is on record as “allows the formation of bigger giant organelles from the ER”.
On to `Nc1ccncc1` [4-AP], for which the “mode of action on TMEM175” value in assay [2] (role: inhibitor) is reported as “antagonist”.
In the case of `CCCCC1(C2CCCC2)Cc2cc(OCCCC(=O)O)c(Cl)c(Cl)c2C1=O` (stereo not shown) [DCPIB], the “mode of action on TMEM175” value in assay [2] (role: activator) is “agonist”.
Consider `C/C=C(/C)C(=O)O[C@H]1C(C)=C2[C@H]([C@@H]1OC(=O)CCCCCCC)[C@@](C)(OC(C)=O)C[C@H](OC(=O)CCC)[C@@]1(O)[C@H]2OC(=O)[C@@]1(C)O` [thapsigargin], for which, in the assay on SERCA pump [3] (reference ratio obtained without thapsigargin), the “Vf/Vi1 and Vf/Vi versus reference ratio” value was “Vf/Vi1<Vf,ref/Vi1,ref, and Vf/Vi<Vf,ref/Vi,ref”. Also, the “re-swelling process in presence of inhibitor” value in the assay with SERCA pump [3] is recorded as “the reswelling process is decreased or not present”; in the assay on SERCA pump [3] (listed as thaspigargin), “the re-swelling process is almost off”. Further, the “effect on the transporting activity of SERCA with respect to Ca^2+” value in the assay with SERCA pump [3] (thapsigargin 10 μM, FIGS. 1 and 6) is reported as “inhibitory effect”. Moreover, the “known activity on the SERCA pump” value in the assay with SERCA pump [4] is “known inhibitor of the SERCA pump”.
In the case of `OC[C@H]1O[C@@](CO)(O[C@H]2O[C@H](CO)[C@@H](O)[C@H](O)[C@H]2O)[C@@H](O)[C@@H]1O` [sucrose], in assay [5] (60 mOsm/L, following minutes, CaCl2 with ATP (100 μM), sucrose as control), the “re-swelling process of vesicle” value is recorded as “no re-swelling is observed; also recorded: no re-swelling process is visible”. The “deflation of vesicle on contacting” value in assay [5] (CaCl2 60 mOsm/L with ATP (100 μM), or sucrose 60 mOsm without ATP stated, vesicle internal 20 mOsm/L, COS7 ER vesicle) is listed as “deflates in a few seconds”. Also, the “transport inside the ER extracellular organelle vesicle” value in assay [5] (sucrose 60 mOsm, FIG. 2) was “not transported inside the ER extracellular organelle vesicle”.
For `COC(=O)Nc1nc2ccc(C(=O)c3cccs3)cc2[nH]1` [nocodazole], in assay [1], the “effect on giant organelle formation from the ER” value is reported as “allows the formation of bigger giant organelles from the ER”.
As for `CO[C@H]1C[C@@H]2CC[C@@H](C)[C@@](O)(O2)C(=O)C(=O)N2CCCC[C@H]2C(=O)O[C@H]([C@H](C)C[C@@H]2CC[C@@H](O)[C@H](OC)C2)CC(=O)[C@H](C)/C=C(\C)[C@@H](O)[C@@H](OC)C(=O)[C@H](C)C[C@H](C)/C=C/C=C/C=C/1C` [rapamycin], in assay [6], the “effect on giant extracellular organelle vesicle formation” value is on record as “allows to form bigger giant extracellular organelles vesicles”.
For `[Cl-].[K+]` [KCl], the “deflation of endolysosome vesicle” value in assay [7] is reported as “the vesicle deflates in a few seconds”. In assay [7] (following minutes), the “re-swelling process of endolysosome vesicle” value is given as “a re-swelling process is not observed”.
With `CO/C1=C\C(C)=C\[C@@H](C)[C@@H](O)[C@@H](C)C/C(C)=C/C=C/[C@H](OC)[C@@H]([C@@H](C)[C@@H](O)[C@H](C)C2(O)C[C@@H](O)[C@H](C)[C@@H](C(C)C)O2)OC1=O` (stereo partly shown) [bafylomicin], the “effect on giant extracellular organelle vesicles from autophagosomes” value in assay [8] was “allows to obtain more giant extracellular organelles vesicles coming from autophagosomes”.
